According to ChEMBL document CHEMBL1139644, “Pharmacophore-based design, synthesis, biological evaluation, and 3D-QSAR studies of aryl-piperazines as alpha(1)-adrenoceptor antagonists” (Bioorg Med Chem Lett, 2005):

Each compound was assayed against T1, Adrenergic receptor alpha-1 (Rattus norvegicus, UniProt P15823+P23944+P43140) (assay: Antagonistic activity for Alpha-1 adrenergic receptor was measured as inhibition of phenylephrine-[…] contractions in isolated Sprague-Dawley rat anacoccygeal muscles).
T1 sequence (P15823 whole entry): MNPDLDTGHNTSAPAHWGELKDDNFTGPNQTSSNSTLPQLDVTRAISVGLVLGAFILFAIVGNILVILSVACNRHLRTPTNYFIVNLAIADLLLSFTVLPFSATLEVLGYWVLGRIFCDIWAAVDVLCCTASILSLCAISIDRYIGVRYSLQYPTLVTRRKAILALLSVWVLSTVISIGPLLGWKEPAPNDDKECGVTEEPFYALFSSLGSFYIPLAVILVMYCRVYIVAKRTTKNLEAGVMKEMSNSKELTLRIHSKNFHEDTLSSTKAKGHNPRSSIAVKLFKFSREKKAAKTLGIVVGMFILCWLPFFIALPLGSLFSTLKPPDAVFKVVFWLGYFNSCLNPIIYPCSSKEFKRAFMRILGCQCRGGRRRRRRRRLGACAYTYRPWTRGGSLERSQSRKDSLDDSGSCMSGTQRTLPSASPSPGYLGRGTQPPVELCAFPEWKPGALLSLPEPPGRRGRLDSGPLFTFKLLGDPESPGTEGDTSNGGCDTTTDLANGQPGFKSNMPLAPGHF
T1 sequence (P23944 whole entry): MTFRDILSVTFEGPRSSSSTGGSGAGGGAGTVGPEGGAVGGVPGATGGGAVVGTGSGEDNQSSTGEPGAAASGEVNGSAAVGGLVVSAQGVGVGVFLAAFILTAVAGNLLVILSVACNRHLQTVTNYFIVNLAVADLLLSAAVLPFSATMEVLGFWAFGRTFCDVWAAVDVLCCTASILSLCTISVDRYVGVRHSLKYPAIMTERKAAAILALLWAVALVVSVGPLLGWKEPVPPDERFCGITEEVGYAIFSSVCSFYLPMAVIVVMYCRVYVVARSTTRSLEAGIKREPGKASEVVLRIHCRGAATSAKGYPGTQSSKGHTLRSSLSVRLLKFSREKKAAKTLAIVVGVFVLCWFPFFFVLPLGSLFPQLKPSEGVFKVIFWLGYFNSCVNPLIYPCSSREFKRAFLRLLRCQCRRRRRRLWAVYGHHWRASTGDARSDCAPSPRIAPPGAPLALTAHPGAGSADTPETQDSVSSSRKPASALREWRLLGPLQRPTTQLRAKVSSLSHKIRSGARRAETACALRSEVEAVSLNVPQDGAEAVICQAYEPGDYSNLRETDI
T1 sequence (P43140 whole entry): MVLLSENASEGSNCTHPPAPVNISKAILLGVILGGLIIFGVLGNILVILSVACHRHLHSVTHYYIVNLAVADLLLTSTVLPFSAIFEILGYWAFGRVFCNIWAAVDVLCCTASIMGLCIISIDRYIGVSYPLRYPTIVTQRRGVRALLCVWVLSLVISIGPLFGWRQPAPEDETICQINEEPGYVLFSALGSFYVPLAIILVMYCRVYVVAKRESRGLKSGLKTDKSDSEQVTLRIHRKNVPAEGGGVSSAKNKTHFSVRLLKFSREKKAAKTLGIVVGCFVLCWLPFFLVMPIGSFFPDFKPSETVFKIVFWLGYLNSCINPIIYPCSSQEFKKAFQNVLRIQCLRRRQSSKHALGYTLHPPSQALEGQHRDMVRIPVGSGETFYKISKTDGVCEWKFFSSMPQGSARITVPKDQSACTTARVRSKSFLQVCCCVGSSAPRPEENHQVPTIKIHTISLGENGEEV
Assay type: functional

Compound | pA2
Cc1ccc(N2CCN(CCNC(=O)c3ccncc3)CC2)cc1 | 6.5
COc1ccccc1N1CCN(CCNC(=O)c2cc3ccccc3oc2=O)CC1 | 7.71
Cc1ccc(N2CCN(CCNC(=O)c3cccnc3)CC2)c(C)c1 | 5.94
COc1ccccc1N1CCN(CCNC(=O)c2cccnc2)CC1 | 7.87
Cc1ccc(N2CCN(CCNC(=O)c3cc4ccccc4o3)CC2)c(C)c1 | 7.36
COc1ccc(Cl)cc1N1CCN(CCNC(=O)c2cc3ccccc3oc2=O)CC1 | 7.31
COc1ccc(Cl)cc1N1CCN(CCNC(=O)c2ccncc2)CC1 | 7.18
COc1ccc(Cl)cc1N1CCN(CCNC(=O)c2cccnc2)CC1 | 5.56
Cc1ccc(N2CCN(CCNC(=O)c3ccncc3)CC2)c(C)c1 | 7.07

Results, then the compound that gave them:

pA2 | Compound
9.12 | COc1ccccc1N1CCN(CCNC(=O)c2ccco2)CC1
7.72 | Cc1ccc(N2CCN(CCNC(=O)c3ccco3)CC2)c(C)c1
6.53 | Cc1ccc(N2CCN(CCNC(=O)c3cccnc3)CC2)cc1
8.56 | COc1cccc(N2CCN(CCNC(=O)c3ccco3)CC2)c1
7.85 | COc1ccc(N2CCN(CCNC(=O)c3ccco3)CC2)cc1
8.56 | COc1ccc(Cl)cc1N1CCN(CCNC(=O)c2ccco2)CC1
5.95 | COc1ccc(N2CCN(CCNC(=O)c3ccncc3)CC2)cc1
5.63 | COc1ccc(Cl)cc1N1CCN(CCNC(=O)c2cc3ccccc3o2)CC1
6.92 | Cc1ccc(N2CCN(CCNC(=O)c3cc4ccccc4o3)CC2)cc1
5.79 | COc1ccc(N2CCN(CCNC(=O)c3cccnc3)CC2)cc1
6.47 | Cc1ccc(N2CCN(CCNC(=O)c3ccco3)CC2)cc1
7.74 | COc1ccc(N2CCN(CCNC(=O)c3cc4ccccc4oc3=O)CC2)cc1
